Assay results from PubChem BioAssay (NCI).
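All cell lines were grown in 96-well plates and treated with compound for 48 hours. Here, GI50 denotes the concentration required for 50% inhibition of growth. TGI denotes the concentration required for complete inhibition of growth.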

Columns and labels:
Assay in all cases: growth of human tumour cells (NCI), 48 h
[1] = tested on: 786-0 renal
[2] = tested on: A549 NSCLC
[3] = tested on: CAKI-1 renal
[4] = tested on: CCRF-CEM leukemia
[5] = tested on: COLO 205 colon
[6] = tested on: DU-145 prostate
[7] = tested on: HCT-116 colon
[8] = tested on: HCT-15 colon
[9] = tested on: HL-60(TB) leukemia
[10] = tested on: HOP-62 NSCLC
[11] = tested on: HS 578T breast
[12] = tested on: HT29 colon
[13] = tested on: IGROV1 ovarian
[14] = tested on: K-562 leukemia
[15] = tested on: KM12 colon
[16] = tested on: LOX IMVI melanoma
[17] = tested on: M14 melanoma
[18] = tested on: MCF7 breast
[19] = tested on: MDA-MB-231 breast
[20] = tested on: MDA-MB-435
[21] = tested on: MOLT-4 leukemia
[22] = tested on: NCI-H23 lung
[23] = tested on: NCI-H460 lung
[24] = tested on: NCI-H522 lung
[25] = tested on: NCI/ADR-RES ovarian
[26] = tested on: OVCAR-3 ovarian
[27] = tested on: OVCAR-4 ovarian
[28] = tested on: OVCAR-5 ovarian
[29] = tested on: OVCAR-8 ovarian
[30] = tested on: PC-3 prostate
[31] = tested on: RPMI-8226 leukemia
[32] = tested on: RXF 393 renal
[33] = tested on: SF-268 CNS
[34] = tested on: SF-295 CNS
[35] = tested on: SF-539 CNS
[36] = tested on: SK-MEL-28 melanoma
[37] = tested on: SK-OV-3 ovarian
[38] = tested on: SN12C renal
[39] = tested on: SNB-19 CNS
[40] = tested on: SNB-75 CNS
[41] = tested on: SR leukemia
[42] = tested on: T-47D breast
[43] = tested on: TK-10 renal
[44] = tested on: U251 CNS
[45] = tested on: UACC-257 melanoma
[46] = tested on: UACC-62 melanoma
[47] = tested on: UO-31 renal
[48] = tested on: A498 renal
[49] = tested on: ACHN renal
[50] = tested on: BT-549 breast
[51] = tested on: EKVX NSCLC
[52] = tested on: HCC-2998 colon
[53] = tested on: HOP-92 NSCLC
[54] = tested on: MALME-3M melanoma
[55] = tested on: NCI-H226 lung
[56] = tested on: SK-MEL-2 melanoma
[57] = tested on: SK-MEL-5 melanoma
[58] = tested on: SW-620 colon

Compound `O=C(O)c1c[nH]c2c(OCc3ccccc3)c3ccccc3c(O)c2c1=O` has a GI50 [1] of 21.7 µM, a TGI [1] of 43.9 µM and a GI50 [2] of 16.4 µM. The TGI [2] was 30.7 µM, the GI50 [3] was 17 µM and the TGI [3] was 35 µM. The GI50 [4] was 10 µM, the TGI [4] was 34.7 µM and the GI50 [5] was 17.6 µM. For the same compound, the TGI [5] was 34.7 µM, the GI50 [6] was 21.1 µM and the TGI [6] was 37.2 µM. The GI50 [7] was 15 µM, the TGI [7] was 28.2 µM and the GI50 [8] was 16.6 µM. It also gave a TGI [8] of 31.9 µM, a GI50 [9] of 19.7 µM and a TGI [9] of 46.1 µM. The GI50 [10] was 17.5 µM, the TGI [10] was 31.4 µM and the GI50 [11] was 33.2 µM. It also gave a TGI [11] of 70.1 µM, a GI50 [12] of 21.7 µM and a TGI [12] of 58.8 µM. The GI50 [13] was 18.7 µM, the TGI [13] was > 100 µM and the GI50 [14] was 3.2 µM. The TGI [14] was > 100 µM, the GI50 [15] was 12.6 µM and the TGI [15] was 29.4 µM. For the same compound, the GI50 [16] was 3.24 µM, the TGI [16] was 11 µM and the GI50 [17] was 12.6 µM. For the same compound, the TGI [17] was 25.2 µM, the GI50 [18] was 14.9 µM and the TGI [18] was 34.3 µM. The GI50 [19] was 20.2 µM, the TGI [19] was > 100 µM and the GI50 [20] was 2.18 µM. For the same compound, the TGI [20] was 4.08 µM, the GI50 [21] was 15.6 µM and the TGI [21] was 36.9 µM. For the same compound, the GI50 [22] was 3.22 µM, the TGI [22] was 14.3 µM and the GI50 [23] was 14.9 µM. The TGI [23] was 38.7 µM, the GI50 [24] was 25.7 µM and the TGI [24] was > 100 µM. It also gave a GI50 [25] of 16.5 µM, a TGI [25] of 47.7 µM and a GI50 [26] of 1.86 µM. The TGI [26] was 11.8 µM, the GI50 [27] was 43.6 µM and the TGI [27] was > 100 µM. It also gave a GI50 [28] of 20 µM, a TGI [28] of 34.2 µM and a GI50 [29] of 11.8 µM. For the same compound, the TGI [29] was 40.9 µM, the GI50 [30] was 15.1 µM and the TGI [30] was 45.9 µM. The GI50 [31] was 9.04 µM, the TGI [31] was 35.8 µM and the GI50 [32] was 23.4 µM. For the same compound, the TGI [32] was 45.6 µM, the GI50 [33] was 22.4 µM and the TGI [33] was 64 µM. For the same compound, the GI50 [34] was 13 µM, the TGI [34] was 27.8 µM and the GI50 [35] was 19.7 µM. The TGI [35] was 36.4 µM, the GI50 [36] was 19.3 µM and the TGI [36] was 36.9 µM. The GI50 [37] was 23.7 µM, the TGI [37] was 85.6 µM and the GI50 [38] was 11.3 µM. For the same compound, the TGI [38] was 23.3 µM, the GI50 [39] was 17.7 µM and the TGI [39] was 42.9 µM. It also gave a GI50 [40] of 19.5 µM, a TGI [40] of 43.1 µM and a GI50 [41] of 28.3 µM. For the same compound, the TGI [41] was 59.6 µM, the GI50 [42] was 21.5 µM and the TGI [42] was 73.8 µM. For the same compound, the GI50 [43] was 22.8 µM, the TGI [43] was 43.4 µM and the GI50 [44] was 2.43 µM. For the same compound, the TGI [44] was 5.19 µM, the GI50 [45] was 11.8 µM and the TGI [45] was 24.2 µM. For the same compound, the GI50 [46] was 3.97 µM, the TGI [46] was 13.3 µM and the GI50 [47] was 20 µM. For the same compound, the TGI [47] was > 100 µM.
With `O=C1CC[C@H](c2ccc(O)c3c2C(=O)[C@@H]2O[C@@H]2C3=O)c2cccc(O)c21` the GI50 [1] was 1.79 µM, the TGI [1] was 3.43 µM and the GI50 [48] was 15.5 µM. For the same compound, the TGI [48] was 29 µM, the GI50 [2] was 16.4 µM and the TGI [2] was 40.9 µM. The GI50 [49] was 1.46 µM, the TGI [49] was 4.16 µM and the GI50 [50] was 2.38 µM. It also gave a TGI [50] of 6.42 µM, a GI50 [3] of 1.41 µM and a TGI [3] of 9.33 µM. For the same compound, the GI50 [4] was 1.05 µM, the TGI [4] was 5.76 µM and the GI50 [5] was 1.24 µM. It also gave a TGI [5] of 2.88 µM, a GI50 [51] of 13.1 µM and a TGI [51] of 28.2 µM. The GI50 [52] was 2.12 µM, the TGI [52] was 4.29 µM and the GI50 [7] was 1.97 µM. It also gave a TGI [7] of 3.89 µM, a GI50 [9] of 1.93 µM and a TGI [9] of 5.87 µM. The GI50 [10] was 3.1 µM, the TGI [10] was 11.6 µM and the GI50 [53] was 2.38 µM. It also gave a TGI [53] of 5.12 µM, a GI50 [11] of 3.78 µM and a TGI [11] of 97.2 µM. For the same compound, the GI50 [12] was 2.33 µM, the TGI [12] was 6.3 µM and the GI50 [14] was 2.36 µM. It also gave a TGI [14] of 10.4 µM, a GI50 [15] of 3.51 µM and a TGI [15] of 12.9 µM. It also gave a GI50 [16] of 0.976 µM, a TGI [16] of 3.86 µM and a GI50 [17] of 1.9 µM. It also gave a TGI [17] of 4.09 µM, a GI50 [54] of 2.31 µM and a TGI [54] of 6.37 µM. For the same compound, the GI50 [18] was 1.17 µM, the TGI [18] was 4.2 µM and the GI50 [20] was 1.92 µM. The TGI [20] was 4.2 µM, the GI50 [21] was 2.71 µM and the TGI [21] was 17.4 µM. For the same compound, the GI50 [55] was 3.21 µM, the TGI [55] was 12.4 µM and the GI50 [22] was 3.31 µM. It also gave a TGI [22] of 20.4 µM, a GI50 [23] of 3.74 µM and a TGI [23] of 30.4 µM. It also gave a GI50 [24] of 1.72 µM, a TGI [24] of 3.33 µM and a GI50 [25] of 3.01 µM. It also gave a TGI [25] of 15.1 µM, a GI50 [27] of 3.51 µM and a TGI [27] of 13.9 µM. The GI50 [28] was 4.55 µM, the TGI [28] was 20.3 µM and the GI50 [29] was 3.36 µM. For the same compound, the TGI [29] was 11.2 µM, the GI50 [30] was 2.52 µM and the TGI [30] was 7.22 µM. The GI50 [32] was 1.73 µM, the TGI [32] was 3.27 µM and the GI50 [33] was 2.32 µM. It also gave a TGI [33] of 6.17 µM, a GI50 [34] of 15.4 µM and a TGI [34] of 29.7 µM. It also gave a GI50 [35] of 2.42 µM, a TGI [35] of 5.46 µM and a GI50 [56] of 13 µM. It also gave a TGI [56] of 26.9 µM, a GI50 [36] of 1.83 µM and a TGI [36] of 3.62 µM. For the same compound, the GI50 [57] was 3.54 µM, the TGI [57] was 12.1 µM and the GI50 [37] was 16.6 µM. The TGI [37] was 30.4 µM, the GI50 [39] was 10.6 µM and the TGI [39] was 33.6 µM. For the same compound, the GI50 [40] was 26.7 µM, the TGI [40] was > 100 µM and the GI50 [41] was 0.835 µM. It also gave a TGI [41] of 4.57 µM, a GI50 [58] of 1.6 µM and a TGI [58] of 4.92 µM. The GI50 [42] was 1.27 µM, the TGI [42] was 3.81 µM and the GI50 [43] was 1.49 µM. For the same compound, the TGI [43] was 2.93 µM, the GI50 [44] was 11.6 µM and the TGI [44] was 25.2 µM. It also gave a GI50 [45] of 2.98 µM, a TGI [45] of 9 µM and a GI50 [46] of 1.75 µM. For the same compound, the TGI [46] was 3.73 µM, the GI50 [47] was 1.57 µM and the TGI [47] was 3.16 µM.
